Assay results taken from US10739330B2, “Carbopyronone compounds useful as diagnostic adjuvants” (LIFE TECHNOLOGIES CORPORATION, priority 2014, dated 2020).
Read-outs that look alike come from different tables or passages of the source.

How the values were obtained:
PBMCs [1] = assay: Cytotoxicity test in PBMCs, viability dye (SYTOX) and flow cytometry; details: after proliferation for 3 to 5 days
Text: (§1) To test for cytotoxicity, PBMCs were stained with CELLTRACE (Thermo Fisher Scientific) CFSE (positive control) or Compound 2. The cells were split into samples for culturing and one sample was stimulated with anti-hCD3 (clone UCHT1) and supplemented with recombinant hIL2. Dye loading was observed by fluorescent microscopy. After proliferation for 3 to 5 days, the samples were stained with the appropriate viability dye (e.g., SYTOX dye) and analyzed by flow cytometry (see Table 3).

[2] = tested on: lymphocyte layer of cells from whole blood; assay: Cell tracing by dye dilution, flow cytometry (Compound 2 vs CELLTRACE Far Red DDAO); assay type: cell-based; details: 5 μM, 20 min 37° C.; stimulated 5 days with DYNABEADS Human T-Activator CD3/CD28; 633/635 nm excitation, 660/20 emission filter
Protocol: The whole blood sample (20 mL) was diluted in 20 mL of PBS and then centrifuged for 30 min after addition of FICOLL-PAQUE Plus (15 mL) (GE Healthcare). The lymphocyte layer of cells was suspended in 25 mL of PBS buffer and centrifuged for 5 min. The cells were counted on the COUNTESS Automated Counter and the concentration was adjusted to 10^6 cells/mL. 10 mL of cells was incubated with either Compound 2 (FIG. 1A) or CELLTRACE Far Red DDAO (FIG. 1B) (Thermo Fisher Scientific) (5 μM) for 20 min in a 37° C. water bath. After incubation the cells were treated with 40 mL of OPTMIZER T Cell Expansion (Thermo Fisher Scientific) for 5 min. The treatment with OPTMIZER T Cell Expansion was repeated one more time after centrifugation. Next, the stained cells were stimulated with 50 μL DYNABEADS Human T-Activator CD3/CD28 (Thermo Fisher Scientific) per 1 mL of cells for 5 days. The stimulated cells were then analyzed using an ATTUNE flow cytometer (Thermo Fisher Scientific) with 633/635 nm excitation and a 660/20 bandpass emission filter.

A549 cells = assay: CYQUANT Direct cytotoxicity assay; details: 10 μM, 30 mins at 37° C.; assayed on days 1, 2 and 3
Protocol: A549 cells plated in a 96 well plate were labeled with [sequence] […] The LCIS was then aspirated from cells and complete media added for an overnight incubation. The following day (Day 1) cells were assayed for cytotoxicity using the CYQUANT Direct assay (Thermo Fisher Scientific).

PBMCs [3] = tested on: PBMCs
Text: as §1

Compound	% Live Cells (PBMCs [1]; 2 μM dye)	% Live Cells (PBMCs [1]; 5 μM dye)	% Live Cells (PBMCs [1]; 10 μM dye)	generations of cells traced [2]	cytotoxicity compared to DMSO alone (A549 cells)	% Live Cells (PBMCs [3])
CN1CCCc2cc3c(cc21)C(C)(C)c1cc2c(cc1=C3c1ccccc1C(=O)[O-])CCC[N+]=2CCCCCC(=O)ON1C(=O)CCC1=O [Compound 2, 2-(1-(6-((2,5-dioxopyrrolidin-1-yl)oxy)-6-oxohexyl)-11-metheyliumyl-13,13-dimethyl-1,2,3,4,8,9,10,13-octahydro-1114-benzo[1,2-g:5,4-g′]diquinolin-6-yl)benzoate]	53%	55%	64%	seven	no cytotoxicity	–
Carboxyfluorescein diacetate succinimidyl ester [CELLTRACE CFSE]	–	–	–	–	–	52%
